Tests used:
NtDRM MTase = target: T1, NtDRM MTase (Nicotiana tabacum, UniProt Q76KU6); assay: X-ray crystal structure, […] A; assay type: binding; conditions: cofactor site; co-crystallised at protein:sinefungin molar ratio 1:3
T1 sequence (Q76KU6 255-608): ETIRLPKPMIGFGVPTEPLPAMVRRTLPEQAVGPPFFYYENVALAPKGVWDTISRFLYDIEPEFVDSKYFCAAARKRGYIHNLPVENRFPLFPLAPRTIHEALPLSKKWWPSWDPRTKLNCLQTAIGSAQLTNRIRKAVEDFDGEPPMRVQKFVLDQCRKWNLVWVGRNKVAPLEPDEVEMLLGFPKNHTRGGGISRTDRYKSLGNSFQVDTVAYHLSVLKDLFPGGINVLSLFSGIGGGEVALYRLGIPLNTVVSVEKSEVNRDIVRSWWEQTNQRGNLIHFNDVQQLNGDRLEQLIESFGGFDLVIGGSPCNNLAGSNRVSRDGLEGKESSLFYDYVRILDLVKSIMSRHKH

crystal structure = target: the molecule itself; assay: crystal structure

Nc1ncnc2c1ncn2[C@@H]1O[C@H](C[C@@H](N)CC[C@H](N)C(=O)O)[C@@H](O)[C@H]1O [sinefungin]
X-ray crystal structure, 2.8 A (NtDRM MTase): NtDRM MTase dimer with each molecule bound to a cofactor analog sinefungin in the active site

B1: Nicotiana tabacum DRM methyltransferase domain (NtDRM MTase, residues 255-608) (domain or fragment, UniProt Q76KU6 255-608, looked up)
chain: ETIRLPKPMIGFGVPTEPLPAMVRRTLPEQAVGPPFFYYENVALAPKGVWDTISRFLYDIEPEFVDSKYFCAAARKRGYIHNLPVENRFPLFPLAPRTIHEALPLSKKWWPSWDPRTKLNCLQTAIGSAQLTNRIRKAVEDFDGEPPMRVQKFVLDQCRKWNLVWVGRNKVAPLEPDEVEMLLGFPKNHTRGGGISRTDRYKSLGNSFQVDTVAYHLSVLKDLFPGGINVLSLFSGIGGGEVALYRLGIPLNTVVSVEKSEVNRDIVRSWWEQTNQRGNLIHFNDVQQLNGDRLEQLIESFGGFDLVIGGSPCNNLAGSNRVSRDGLEGKESSLFYDYVRILDLVKSIMSRHKH
stoichiometry N (crystal structure): 2

Reference: PMC4123750 (Cell, 2014)
